Data: US11332452B2, “Pesticidal compositions and methods” (priority 2019, dated 2022)

What was measured:
Assay type in all cases: in vivo
[1] = test system: Beet Armyworm (Spodoptera exigua, LAPHEG); test: Insecticidal test for beet armyworm (BAW), 128-well diet tray assay; conditions: 168 h, 50 μg/cm^2 of test compound on artificial diet, second instar larvae, 25° C., five to seven days, average of eight wells, read-out: BAW % Control (or Mortality) rating
Experimental: Insecticidal Test for Beet Armyworm (Spodoptera exigua, LAPHEG) (“BAW”)
(§1) Bioassays on beet armyworm (BAW; Spodoptera exigua: Lepidoptera) are conducted using a 128-well diet tray assay. One to five second instar BAW larvae are placed in each well (3 mL) of the diet tray that had been previously filled with 1 mL of artificial diet to which 50 μg/cm^2 of the test compound (dissolved in 50 μL of 90:10 acetone-water mixture) had been applied (to each of eight wells) and then allowed to dry. Trays are covered with a clear self-adhesive cover, vented to allow gas exchange, and held at 25° C., 14:10 light-dark for five to seven days. Percent mortality is recorded for the larvae in each well; activity in the eight wells is then averaged.

[2] = test system: Cabbage Looper (Trichloplusia Ni, TRIPNI); test: Insecticidal test for cabbage looper (CL), 128-well diet tray assay; conditions: Trichoplusia ni, 168 h, read-out: CL % Control (or Mortality) rating
Experimental: Insecticidal Test for Cabbage Looper (Trichloplusia Ni, TRIPNI) (“CL”)
as §1, with “cabbage looper (CL; Trichloplusia ni:” for “beet armyworm (BAW; Spodoptera exigua:”, “CL” for “BAW”

[3] = test system: Yellow Fever Mosquito (Aedes aegypti, AEDSAE); test: Insecticidal test for yellow fever mosquito (YFM), 96-well plate larval assay; conditions: from 4000 ppm DMSO master solution, diluted; about 1 day-old larvae; room temperature; scored after 3 days
Experimental: Insecticidal Test for Yellow Fever Mosquito (Aedes aegypti, AEDSAE) (“YFM”)
Master plates containing 400 μg of a molecule dissolved in 100 μL of dimethyl sulfoxide (DMSO) (equivalent to a 4000 ppm solution) are used. A master plate of assembled molecules contains 15 μL per well. To this plate, 135 μL of a 90:10 water/acetone mixture is added to each well. A robot (Biomek® NXP Laboratory Automation Workstation) is programmed to dispense 15 μL aspirations from the master plate into an empty 96-well shallow plate (“daughter” plate). There are 6 reps (“daughter” plates) created per master. The created “daughter” plates are then immediately infested with YFM larvae.
The day before plates are to be treated, mosquito eggs are placed in Millipore water containing liver powder to begin hatching (4 g. into 400 mL). After the “daughter” plates are created using the robot, they are infested with 220 μL of the liver powder/larval mosquito mixture (about 1 day-old larvae). After plates are infested with mosquito larvae, a non-evaporative lid is used to cover the plate to reduce drying. Plates are held at room temperature for 3 days prior to grading. After 3 days, each well is observed and scored based on mortality.

| Compound | mortality at 50 µg/cm2 [1] [%] | mortality at 50 µg/cm2 [2] [%] | YFM % Control (or Mortality) rating [3] |
| --- | --- | --- | --- |
| Cc1ccc(C(C)C)c(N2C(=O)CS/C2=N\C(=O)NCCc2ccc(NC(=O)c3ccc(OC(F)(F)F)cc3)cc2)c1 [Compound A49, (Z)—N-(4-(2-(3-(3-(2-isopropyl-5-methylphenyl)-4-oxothiazolidin-2-ylidene)ureido)ethyl)phenyl)-4-(trifluoromethoxy)benzamide] | 50 to 100 | 0 | A (80-100) |
| Cc1ccc(C(C)C)c(N2C(=O)CS/C2=N\C(=O)NCCc2ccc(NC(=O)Nc3ccc(C(F)(F)F)cc3)cc2)c1 [Compound A9, (Z)-1-(4-(2-(3-(3-(2-isopropyl-5-methylphenyl)-4-oxothiazolidin-2-ylidene)ureido)ethyl)phenyl)-3-(4-(trifluoromethyl)phenyl)urea] | 50 to 100 | 50 to 100 | A (80-100) |
| Cc1ccc(C(C)C)c(N2C(=O)CS/C2=N\C(=O)Nc2ccc(NNC(=O)c3ccc(OC(F)(F)F)cc3)cc2)c1 [Compound A4, (Z)-1-(3-(2-isopropyl-5-methylphenyl)-4-oxothiazolidin-2-ylidene)-3-(4-(2-(4-(trifluoromethoxy)benzoyl)hydrazinyl)phenyl)urea] | 50 to 100 | 50 to 100 | A (80-100) |
| Cc1ccc(C(C)C)c(N2C(=O)CS/C2=N\C(=O)Nc2ccc(CCOC(=O)Nc3ccc(OC(F)(F)F)cc3)cc2)c1 [Compound A52, (Z)-4-(3-(3-(2-isopropyl-5-methylphenyl)-4-oxothiazolidin-2-ylidene)ureido)phenethyl (4-(trifluoromethoxy)phenyl)carbamate] | 50 to 100 | 50 to 100 | A (80-100) |
| O=C(/N=C1\SCC(=O)N1c1cc(Cl)ccc1OCC(F)(F)F)NCCc1ccc(NC(=O)Nc2ccc(OC(F)(F)F)cc2)cc1 [Compound A17, (Z)-1-(4-(2-(3-(3-(5-Chloro-2-(2,2,2-trifluoroethoxy)phenyl)-4-oxothiazolidin-2-ylidene)ureido)ethyl)phenyl)-3-(4-(trifluoromethoxy)phenyl)urea] | 50 to 100 | 50 to 100 | A (80-100) |
| O=C(/N=C1\SCC(=O)N1c1cccc2c1CCCC2)NCCc1ccc(NC(=O)Nc2ccc(OC(F)(F)F)cc2)cc1 [Compound A24, (Z)-1-(4-(2-(3-(4-Oxo-3-(5,6,7,8-tetrahydronaphthalen-1-yl)thiazolidin-2-ylidene)ureido)ethyl)phenyl)-3-(4-(trifluoromethoxy)phenyl)urea] | 50 to 100 | 50 to 100 | B (More than 0-Less than 80) |
| CC(Cc1ccc(NC(=O)Nc2ccc(C(F)(F)F)cc2)cc1)NC(=O)/N=C1\SCC(=O)N1c1cc(Cl)ccc1C(C)C (centres unmarked) [Compound A29, (Z)-1-(4-(2-(3-(3-(5-Chloro-2-isopropylphenyl)-4-oxothiazolidin-2-ylidene)ureido)propyl)phenyl)-3-(4-(trifluoromethyl)phenyl)urea] | 50 to 100 | 50 to 100 | A (80-100) |
| Cc1ccc(C(C)C)c(N2C(=O)CS/C2=N\C(=O)Nc2ccc(N/N=C/c3ccc(OC(F)(F)F)cc3)cc2)c1 [Compound A55, 1-((Z)-3-(2-Isopropyl-5-methylphenyl)-4-oxothiazolidin-2-ylidene)-3-(4-(2-((E)-4-(trifluoromethoxy)benzylidene)hydrazinyl)phenyl)urea] | 50 to 100 | 50 to 100 | A (80-100) |
| Cc1ccc(C(C)C)c(N2C(=O)CS/C2=N\C(=O)Nc2ccc(C(=O)NNc3ccc(OC(F)(F)F)cc3)cc2)c1 [Compound A2, (Z)-1-(3-(2-Isopropyl-5-methylphenyl)-4-oxothiazolidin-2-ylidene)-3-(4-(2-(4-(trifluoromethoxy)phenyl)hydrazine-1-carbonyl)phenyl)urea] | 50 to 100 | 50 to 100 | A (80-100) |
| CCCc1ccc(OC)cc1N1C(=O)CS/C1=N\C(=O)NC(C)Cc1ccc(NC(=O)Nc2ccc(OC(F)(F)F)cc2)cc1 (centres unmarked) [Compound A37, (Z)-1-(4-(2-(3-(3-(5-Methoxy-2-propylphenyl)-4-oxothiazolidin-2-ylidene)ureido)propyl)phenyl)-3-(4-(trifluoromethoxy)phenyl)urea] | 50 to 100 | 50 to 100 | B (More than 0-Less than 80) |
| Cc1ccc(C(C)C)c(-n2ccs/c2=N\C(=O)NCCc2ccc(NC(=O)Nc3ccc(OC(F)(F)F)cc3)cc2)c1 [Compound A22, (Z)-1-(4-(2-(3-(3-(2-Isopropyl-5-methylphenyl)thiazol-2(3H)-ylidene)ureido)ethyl)phenyl)-3-(4-(trifluoromethoxy)phenyl)urea] | 50 to 100 | 50 to 100 | A (80-100) |
| Cc1cc(Cl)c(N2C(=O)CS/C2=N\C(=O)NC(C)Cc2ccc(NC(=O)Nc3ccc(OC(F)(F)F)cc3)cc2)cc1C (centres unmarked) [Compound A41, (Z)-1-(4-(2-(3-(3-(2-Chloro-4,5-dimethylphenyl)-4-oxothiazolidin-2-ylidene)ureido)propyl)phenyl)-3-(4-(trifluoromethoxy)phenyl)urea] | 50 to 100 | 50 to 100 | B (More than 0-Less than 80) |
| Cc1ccc(C(C)C)c(N2C(=O)CS/C2=N\C(=O)Nc2ccc(CCNC(=S)Nc3ccc(OC(F)(F)F)cc3)cc2)c1 [Compound A47, (Z)-1-(3-(2-isopropyl-5-methylphenyl)-4-oxothiazolidin-2-ylidene)-3-(4-(2-(3-(4-(trifluoromethoxy)phenyl)thioureido)ethyl)phenyl)urea] | 50 to 100 | 50 to 100 | A (80-100) |
| CC(Cc1ccc(NC(=O)Nc2ccc(OC(F)(F)F)cc2)cc1)NC(=O)/N=C1\SCC(=O)N1c1cc(Cl)ccc1C(C)C (centres unmarked) [Compound A35, (Z)-1-(4-(2-(3-(3-(5-Chloro-2-isopropylphenyl)-4-oxothiazolidin-2-ylidene)ureido)propyl)phenyl)-3-(4-(trifluoromethoxy)phenyl)urea] | 50 to 100 | 50 to 100 | A (80-100) |
| Cc1ccc(C(C)C)c(N2C(=O)CS/C2=N\C(=O)NC(C)Cc2ccc(NC(=O)Nc3ccc(C(F)(F)F)cc3)cc2)c1 (centres unmarked) [Compound A27, (Z)-1-(4-(2-(3-(3-(2-Isopropyl-5-methylphenyl)-4-oxothiazolidin-2-ylidene)ureido)propyl)phenyl)-3-(4-(trifluoromethyl)phenyl)urea] | 50 to 100 | 50 to 100 | A (80-100) |
| CCC(C)Oc1ccc(C)cc1N1C(=O)CS/C1=N\C(=O)NCCc1ccc(NC(=O)Nc2ccc(OC(F)(F)F)cc2)cc1 (centres unmarked) [Compound A20] | 50 to 100 | 50 to 100 | B (More than 0-Less than 80) |
| CC(C)c1ccccc1N1C(=O)CS/C1=N\C(=O)NCCc1ccc(NC(=O)Nc2ccc(C(F)(F)F)cc2)cc1 [Compound A12, (Z)-1-(4-(2-(3-(3-(2-Isopropylphenyl)-4-oxothiazolidin-2-ylidene)ureido)ethyl)phenyl)-3-(4-(trifluoromethyl)phenyl)urea] | 50 to 100 | 50 to 100 | A (80-100) |
| CCc1cccc(C)c1N1C(=O)CS/C1=N\C(=O)NC(C)Cc1ccc(NC(=O)Nc2ccc(C(F)(F)F)cc2)cc1 (centres unmarked) [Compound A32, (Z)-1-(4-(2-(3-(3-(2-Ethyl-6-methylphenyl)-4-oxothiazolidin-2-ylidene)ureido)propyl)phenyl)-3-(4-(trifluoromethyl)phenyl)urea] | 50 to 100 | 50 to 100 |  |
